Experimental data reported in patent publication EP1360961A1, “Use of antimicrobial peptides for potentiating the activity of antimicrobial agents” (AM-Pharma B.V., priority 2002, dated 2003).

Tests used:
[1] = tested on: Fluconazole-resistant C. albicans strain Y01-19; experiment: E-test for fluconazole resistance; format: cell-based; conditions: Candida albicans
Description: Fluconazole. Fluconazole (Pfizer Inc. New York, NY) was dissolved at a concentration of 1 mg/ml of dimethylsulfoxide (Fluka Chemie GmbH, Sigma-Aldrich Chemie BV, Zwijndrecht, The Netherlands) and stored at -20°C until use. From this stock solution appropriate concentrations were prepared in 10 mM of sodium phosphate buffer (pH 7.4), further referred to as NaPB. Source of C. albicans strain. Fluconazole-resistant C. albicans strain Y01-19 was purchased from Pfizer (Groton, Conn.). […] Fluconazole resistance (M.I.C.>256 µg/ml) was evaluated using the E-test (Oxoid Unipath Ltd., Basingstoke, UK). Yeasts were cultured overnight in Sabouraud broth (Oxoid) at 37°C and sub-cultured for 2,5 h on a rotary wheel at 37°C.

[2] = tested on: fluconazole-resistant C. albicans; experiment: In vitro assay for candidacidal activity of hLF-derived peptides and/or fluconazole (co-incubation, CFU count); format: cell-based; conditions: 1×10^6 CFU/ml, 2 h at 37°C; noncandidacidal peptide concentrations; fluconazole 100-200 µg/ml; Fig. 1
Description: • Figure 1 - Candidacidal activity of combinations of noncandidacidal concentrations of hLF(1-11), an N-terminal peptide of human lactoferrin and 200 µg/ml fluconazole (closed bars), 150 µg/ml fluconazole (black dotted bars), 100 µg/ml fluconazole (white dotted bars) or without this triazole (open bars). […] In short, 1×10^6 CFU fluconazole-resistant C. albicans/ml were incubated with combinations of hLF(1-11) and fluconazole for 2 h at 37°C and then the number of surviving Candida was determined microbiologically. […] In short, 1×10^6 CFU Candida/ml were preincubated for 5 min at 37°C with (8 µM) hLF(1-11) or (200 µg/ml) fluconazole, washed and then incubated for 2 h at 37°C with (200 µg/ml) fluconazole or (8 µM) hLF(1-11), respectively. As controls, Candida cells were incubated for 2 h at 37°C with (8 µM) hLF(1-11), (200 µg/ml) fluconazole, the combination of (8 µM) hLF(1-11) and (200 µg/ml) fluconazole or no agent. Results are means plus SD of at least three independent experiments.
Assay for candidacidal activity of hLF-derived peptides and fluconazole. […] After a 2 h incubation at 37°C with hLF peptides and/or fluconazole the number of viable blastoconidia was determined by plating serial dilutions of each sample on Sabouraud agar. Results are expressed as colony forming units (CFU) per ml.

In the case of OC(Cn1cncn1)(Cn1cncn1)c1ccc(F)cc1F [Fluconazole], the MIC [1] is reported as > 256 µg/mL and the candidacidal activity [2] is reported as “without effect”.
